Measured values: BindingDB's records for patent US11078201 (Nimbus Saturn, 2021)

Each molecule was assayed against Mitogen-activated protein kinase kinase kinase kinase 1 (Homo sapiens, UniProt Q92918) (assay: Biochemical Enzyme Assay).
Procedure: HPK1 biochemical enzyme assay: HPK1 enzyme inhibition was measured using a microfluidic mobility shift assay. […] Test compounds were titrated in ten point curves (top final assay concentration […]), and preincubated with enzyme/substrate mix for 30 min prior to initiation of the reaction by addition of ATP (1 mM final concentration) and substrate (1 μM final concentration; Carna Biosciences) diluted in assay buffer supplemented by MgCl2 (final assay concentration of 5 mM). Following 60 min incubation at RT, the reaction was terminated by addition of 60 µl/well termination buffer (Carna Biosciences) and signal determination using a Caliper EZ Reader (Perkin Elmer, UK).

Chain of Mitogen-activated protein kinase kinase kinase kinase 1 (Q92918 whole entry): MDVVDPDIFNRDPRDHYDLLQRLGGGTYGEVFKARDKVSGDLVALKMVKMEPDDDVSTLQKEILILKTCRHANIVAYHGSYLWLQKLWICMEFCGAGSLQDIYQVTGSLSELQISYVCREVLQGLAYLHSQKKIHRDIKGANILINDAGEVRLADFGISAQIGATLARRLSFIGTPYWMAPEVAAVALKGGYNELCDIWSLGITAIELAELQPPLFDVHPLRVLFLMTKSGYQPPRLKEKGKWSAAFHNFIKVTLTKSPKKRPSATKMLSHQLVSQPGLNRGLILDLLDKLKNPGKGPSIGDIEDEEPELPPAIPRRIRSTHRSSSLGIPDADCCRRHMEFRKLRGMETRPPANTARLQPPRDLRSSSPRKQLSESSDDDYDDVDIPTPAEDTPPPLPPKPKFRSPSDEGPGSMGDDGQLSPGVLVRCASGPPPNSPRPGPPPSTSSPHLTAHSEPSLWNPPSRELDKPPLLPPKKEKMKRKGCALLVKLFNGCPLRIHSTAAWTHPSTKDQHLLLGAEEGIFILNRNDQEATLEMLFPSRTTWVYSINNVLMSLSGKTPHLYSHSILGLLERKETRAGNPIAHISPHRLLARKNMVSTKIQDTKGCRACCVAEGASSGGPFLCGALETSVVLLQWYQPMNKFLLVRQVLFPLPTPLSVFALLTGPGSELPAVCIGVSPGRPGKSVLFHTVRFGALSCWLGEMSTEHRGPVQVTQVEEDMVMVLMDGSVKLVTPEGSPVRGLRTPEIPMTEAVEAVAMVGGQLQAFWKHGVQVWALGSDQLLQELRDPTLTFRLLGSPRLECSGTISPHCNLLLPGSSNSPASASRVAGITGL

Q: `CN[C@@H]1CCCN(c2ccc(Nc3ccc(-c4ccnc5c4c(C)cn5C)c4c3C(=O)NC4)nc2)C1` [US11078201, Compound I-100] was tested. Which IC50 did it give?
A: Its IC50 is less than 100 nM.

Q: With `Cn1cnc2c(-c3ccc(Nc4ccc(N5CCNCC5)cn4)c4c3CNC4=O)ccnc21` [US11078201, Compound I-122] as the molecule, how does the IC50 read?
A: Its IC50 is less than 100 nM.

Q: How did the IC50 turn out when `CN1CCN(C2=CNC(Nc3cnc(-c4c(-c5ccccc5)[nH]c5ccccc45)c4c3C(=O)NC4)C=C2)CC1` (stereo unspecified) [US11078201, Compound I-141] was run?
A: Its IC50 is less than 100 nM.

Q: How did the IC50 turn out when `O=C1NCc2c(-c3cnn4nccnc34)ccc(Nc3ccc(N4CCC(O)CC4)cn3)c21` [US11078201, Compound I-157] was run?
A: The IC50 was less than 100 nM.

Q: Which IC50 does the source give for `O=C1NCc2c(-c3cnc4cc(F)ccn34)ccc(Nc3ccc(N4C[C@@H]5CC[C@@H](C5)C4)cn3)c21` [US11078201, Compound I-404] here?
A: The IC50 was less than 100 nM.

Q: Which IC50 does the source give for `O=C1NCc2c(-c3cnc4cc(F)ccn34)ccc(Nc3ccc(N4CC5CCC(C5)C4)cn3)c21` [US11078201, Compound I-405] here?
A: Its IC50 is less than 100 nM.

Q: For `CN1C=CC2=C(c3ncc(Nc4cccc(N5CC[C@H]6CNC[C@H]65)n4)c4c3CNC4=O)C=CNC21` (stereo partly specified) [US11078201, Compound I-440], which IC50 is on record?
A: Its IC50 is less than 100 nM.

Q: With `Cn1ccc2c(-c3ncc(NC4C=CC(C5CCOC5)=C(CN5CCCC5)N4)c4c3CNC4=O)ccnc21` (stereo unspecified) [US11078201, Compound I-552] as the molecule, how does the IC50 read?
A: Its IC50 is less than 100 nM.

Q: For `CO[C@@H]1CN(c2ccc(Nc3ccc(-c4cnn5c4CCCC5)c4c3C(=O)NC4)nc2)[C@@H](CO)CO1` [US11078201, Compound I-571], which IC50 is on record?
A: The IC50 was less than 100 nM.

Q: Which IC50 does the source give for `CN(C)Cc1nc(Nc2ccc(-c3cnc4cc(F)ccn34)c3c2C(=O)NC3)ccc1C1CC[C@@H](F)[C@H](O)C1` (stereo partly specified) [US11078201, Compound I-700] here?
A: Its IC50 is less than 100 nM.

Q: Which IC50 does the source give for `CN(C)Cc1nc(Nc2ccc(-c3cnc4cc(F)ccn34)c3c2C(=O)NC3)ccc1C1CC[C@H](F)[C@@H](O)C1` (stereo partly specified) [US11078201, Compound I-701] here?
A: Its IC50 is less than 100 nM.
